Reference: US5130450A, “Platinum complexes” (Nippon Kayaku Kabushiki Kaisha, priority 1990, dated 1992)

Key:
[1] = test system: SW-1116 cells; experiment: Growth inhibition of SW-1116 cells derived from colon cancer, 96 h, methylene blue staining; format: cell-based
Procedure: (§1) After 24-hour incubation under the conditions of 37° C. and 5% CO2, 10 μl of the novel fat-soluble platinum complex was added in various concentrations and the PC-3 cells and SW-1116 cells were further cultured for 72 hours and 96 hours, respectively. Thereafter, the culture was drawn off from each well by using an aspirator, fixed with MeOH, then added with a 0.05% methylene blue/10 mM tris-(hydroxymethyl)aminomethanehydrochloric acid buffer solution (pH 8.5) at a rate of 100 μl/well and stained at room temperature for 30 minutes. Thereafter, each well was cleared of the staining solution by using an aspirator and washed three times with pure water. Then 3% hydrochloric acid solution was added at a rate of 200 μl/well, and after sealing, the culture was left at room temperature for about 24 hours and the pigment was extracted from the cells. The absorbance (A660) of each well at 660 nm was measured by a dynamic microplate reader, and the growth inhibition rate (%) at each concentration was calculated from the following equation. […] [formula]

[2] = test system: PC-3 cells; experiment: Growth inhibition of PC-3 cells derived from lung cancer, 72 h, methylene blue staining; format: cell-based
Procedure: as §1

[3] = in words, clinical use; cited from earlier work
[4] = in words, prior art; cited from earlier work

| Compound | IC50 SW-1116 [1] [µg/mL] | IC50 PC-3 [2] [µg/mL] | Solubility in water [mg/mL] | side effects [3] | antitumor effect [4] |
| --- | --- | --- | --- | --- | --- |
| CC(C)(CO)C(=O)[O-].CC(C)(CO)C(=O)[O-].N[C@@H]1CCCC[C@H]1N.[Pt+2] (relative stereo) [compound No. 10, cis-Bis(3-hydroxy-2,2-dimethylpropionato)-trans-1,2-diaminocyclohexane platinum (II)] | 0.065 | 0.50 |  |  |  |
| N.N.[Cl][Pt][Cl] [cis-Platin, cis-dichlorodiammine platinum (II), reference compound] | 0.36 | 0.40 |  | strong side effects such as renal toxicity and vomitting toxicity | very excellent antitumor effect |
| CC(C)(CO)C(O)C(=O)[O-].CC(C)(CO)C(O)C(=O)[O-].NC1CCCCC1N.[Pt+2] [compound No. 9, cis-Bis[(S)-2,4-dihydroxy-3,3-dimethylbutyrato]-trans-(R,R)-1,2-diaminocyclohexane platinum (II)] | 0.057 | 0.45 |  |  |  |
| CC(O)(CCO)CC(=O)[O-].CC(O)(CCO)CC(=O)[O-].N.N.[Pt+2] (stereo not drawn) [compound No. 12, cis-Bis(3,5-dihydroxy-3-methylvalerato)-diammine platinum (II)] |  |  | > 100 |  |  |
| CC(C)(CO)C([O-])C(=O)[O-].NC1CCCCC1N.[Pt+2] (stereo not drawn) [compound No. 18, cis-[2-(2-Hydroxy-1,1-dimethylethyl)-glycolato-O,O']-trans-1,2-diaminocyclohexane platinum (II)] | 0.25 | 2.03 |  |  |  |
| cis-Bis[(R)-2,4-dihydroxy-3,3-dimethylbutyrato]-trans-(R,R)-1,2-diaminocyclohexane platinum (II) [compound No. 5] | 0.060 | 0.60 | > 100 |  |  |

Further lines, with some results ahead:

| IC50 SW-1116 [1] [µg/mL] | IC50 PC-3 [2] [µg/mL] | Solubility in water [mg/mL] | Compound | side effects [3] | antitumor effect [4] |
| --- | --- | --- | --- | --- | --- |
| 0.21 | 1.57 |  | CC(C)(O)C(=O)[O-].CC(C)(O)C(=O)[O-].N[C@@H]1CCCC[C@H]1N.[Pt+2] (relative stereo) [compound No. 8, cis-Bis(2-hydroxy-2-methylpropionato)-trans-1,2-diaminocyclohexane platinum (II)] |  |  |
| 0.085 | 0.76 |  | CC(O)(CCO)CC(=O)[O-].CC(O)(CCO)CC(=O)[O-].N[C@@H]1CCCC[C@H]1N.[Pt+2] (relative stereo) [compound No. 13, Cis-Bis(3,5-dihydroxy-3-methylvalerato)-trans-1,2-diaminocyclohexane platinum (II)] |  |  |
| 0.082 | 0.60 |  | CC(C)(CO)[C@@H](O)C(=O)NCCC(=O)[O-].CC(C)(CO)[C@@H](O)C(=O)NCCC(=O)[O-].N[C@@H]1CCCC[C@H]1N.[Pt+2] (stereo in doubt) [compound No. 17, cis-Bis[(R)-pantothenato]-trans-(R,R)-1,2-diaminocyclohexane platinum (II)] |  |  |
| 0.36 | 0.35 | > 20 | CC(C)(CO)C(=O)[O-].CC(C)(CO)C(=O)[O-].C[C@@H](CN)CCN.[Pt+2] (stereo in doubt) [compound No. 20, cis-Bis(3-hydroxy-2,2-dimethylpropionato)(R)-1,4-diamino-2-methylbutane platinum (II)] |  |  |
| 0.37 | 0.53 | > 100 | CC(C)(CO)C([O-])C(=O)[O-].C[C@@H](CN)CCN.[Pt+2] (stereo in doubt) [compound No. 21, cis-[2-(2-Hydroxy-1,1-dimethylethyl)-glycolato-O,O']-(R)-1,4-diamino-2-methylbutane platinum (II)] |  |  |
| 0.37 | 0.73 | > 100 | CC(C)(CO)[C@@H](O)C(=O)[O-].CC(C)(CO)[C@@H](O)C(=O)[O-].NCC1(N)CCCCC1.[Pt+2] [compound No. 4, cis-Bis[(R)-2,4-dihydroxy-3,3-dimethylbutyrato]-1-amino-1-aminomethylcyclohexane platinum (II)] |  |  |
| 0.14 | 0.80 | > 100 | CC(O)(CCO)CC(=O)[O-].CC(O)(CCO)CC(=O)[O-].NCC1(N)CCCCC1.[Pt+2] (stereo not drawn) [compound No. 15, cis-Bis(3,5-dihydroxy-3-methylvalerato)-1-amino-1-aminomethylcyclohexane platinum (II)] |  |  |
| 0.36 | 0.40 |  | CC(C)(CO)C(O)C(=O)[O-].CC(C)(CO)C(O)C(=O)[O-].CC(CN)CCN.[Pt+2] [compound No. 19, cis-Bis[(R)-2,4-dihydroxy-3,3-dimethylbutyrato]-(R)-1,4-diamino-2-methylbutane platinum (II)] |  |  |
|  |  | > 100 | cis-Bis[(R)-2,4-dihydroxy-3,3-dimethylbutyrato]diammine platinum (II) [compound No. 1] |  |  |
